Test results as given in patent US11098009B2, “Amidine substituted analogues and uses thereof” (Verlyx Pharma Inc., priority 2016, dated 2021).
Structures can show the parent of a compound that is named as a salt.

Columns and labels:
HCT-116 cells = assay: HCT assay: real-time proliferation assay using xCELLigence system; format: cell-based; settings: xCELLigence impedance
Experimental: The compounds were evaluated in a proliferation assay using HCT-116 cells using an xCELLigence system. Briefly, the xCELLigence system monitors cellular events in real time by measuring electrical impedance across interdigitated micro-electrodes integrated on the bottom of tissue culture E-Plates. The impedance measurement provides quantitative information about the biological status of the cells, including cell number, viability, and morphology. Real-time proliferation assays were then to determine the IC50 values. All proliferation assays start 24 hours after the transfection.

[1] = system: GalN/LPS fulminant liver injury; assay: GalN/LPS fulminant liver injury model, Study a (survival); format: in vivo, C57BL/6 mice
Experimental: A Galactosamine/Liposaccharide (GalN/LPS) fulminant liver injury model may be used to evaluate the anti-inflammatory, anti-TNFα and hepatoprotective properties of the compound of the description.
Mice were maintained under 12 h light/dark cycles with unlimited access to food and water. Study was performed in 6- to 14-week old male mice. C57BL/6 mice were used. Mice are first injected with pentamidine or Example 2 compound (IP injection). 30 minutes later, liver injury is induced by intraperitoneal injections of 100 μg/kg of LPS (E. coli 0111:B4) and 700 mg/kg of GalN (Sigma) dissolved in phosphate-buffered saline (PBS).
The tested compounds were be dosed IP 30-minutes prior to the co-treatment with galactosamine (GalN) and endotoxin (Lipopolysaccharide) LPS. Mice were either sacrificed at 6.5 hours after GalN/LPS for ALT analysis, or kept for longer periods to evaluate survival. The analysis of alanine transaminase (ALT) serum levels and histological observations allow the evaluation of the hepatoprotective, anti-TNF-α, anti-inflammatory and/or anti-fibrotic activity.
Survival was evaluated at two time points, i.e. 8 and 23 hours. In controls group receiving PBS prior to the GalN/LPS liver injury, no mice survived 8 hours. […] In the case of trihexamidine isethionate, all mice survived more than 23 hours with 10 mg/kg (8.6 μmole/kg) doses.

[2] = system: DSS-induced acute colitis; assay: DSS-induced acute colitis in mice (Disease Activity Index); format: in vivo, C57BL/6 ELITE mice; settings: 2.5% DSS; 2.5 and 5 mg/kg IP q.d. D1-D6, termination D7; FIG. 5
Experimental: Dextran Sulfate Sodium 2.5% stocks were prepared by adding tap water in the pre-weighed powder. DSS solutions will be changed every 3 days for all groups, i.e. on Day 1 (D1) and Day 4 (D4).
Formulations for Intraperitoneal Administration: • Vehicle: sterile double distilled water (DDW) • For Pentamidine (Penta) and Compounds 2 and 4, the compounds were dissolved in DDW and dosed at 2 mL/kg to yield the indicated doses. In-Vivo Study
Male C57BL/6 ELITE mice of ˜7-8 weeks old were used. After 5-day acclimatization period in animal facility, all mice were weighed and given tap water containing 2.5% DSS on Day 1, treatment also starts on Day 1.
Animals were dosed from D1 to D6, once daily by IP injection (2 mL/kg). Animals were terminated on D7. The Disease Activity Index (DAI) scale is based on the evaluation of different parameters characterizing experimental colitis induction and progression. Body weight, presence of gross blood in the feces and stool consistency will be recorded daily.
• Weight loss: 0=none; 1=1 to 5%; 2=5 to 10%; 3=_10 to 20%; 4=>20% • Stool consistency: 0=normal; 2=loose; 4=diarrhea • Rectal bleeding: 0=normal; 2=occult bleeding; 4=gross bleeding
On Day 7, mice will be weighed and disease scores evaluated, and then euthanized by CO2 inhalation.

[3] = system: GalN/LPS fulminant liver injury; assay: GalN/LPS fulminant liver injury model, Study b (serum ALT); format: in vivo, C57BL/6 mice; settings: for Hepatoprotection at lower doses: 10 mg/kg (4.3 and 8.6 μmole/kg) for C2, 5 and 10 mg/kg (3.3 and 6.6 μmole/kg) for C4, 5 mg/kg (6.3 mole/kg [sic]) for C5; for Hepatoprotection in the model (low ALT activity levels following GalN/LPS): FIG. 3; for ALT: GalN-LPS 700 mg/kg - 10 μg/kg, 6 hours post injury, WFI control 5989
Experimental: (§1) Mice were maintained under 12 h light/dark cycles with unlimited access to food and water. Study was performed in 6- to 14-week old male mice. C57BL/6 mice were used. Mice are first injected with pentamidine or Example 2 compound (IP injection). […]
(§2) All doses were administered IP to six mice (n=6), 30 minutes prior to the injection of the GalN and LPS, when applicable to the group. Blood samples were collected exactly 6 hours post GalN/LPS injections, or 6.5 hours after vehicle injections.
(§3) The tested compounds were dosed IP 30 minutes prior to the co-treatment with galactosamine (GalN) and endotoxin (Lipopolysaccharide) LPS. Mice were sacrificed at 6 hours after GalN/LPS for ALT analysis. The analysis of alanine transaminase (ALT) serum levels allows the evaluation of the hepatoprotective, anti-TNF-α, anti-inflammatory and/or anti-fibrotic activity.

[4] = system: GalN/LPS fulminant liver injury; assay: GalN/LPS fulminant liver injury model, Study c (serum ALT); format: in vivo, C57BL/6 mice; settings: for ALT: GalN-LPS 700 mg/kg - 10 μg/kg, 6 hours post injury, WFI control 4403
Experimental: as §1, §2, §3

[5] = Homo sapiens, HCT-116, HCT-116 cells

Compound	IC50 (HCT-116 cells; [5])	Disease activity index [2]	Hepatoprotection at lower doses [3]	Hepatoprotection in the model (low ALT activity levels following GalN/LPS) [3]	ALT ([3]; IP dose 5 mg/kg in WFI)	ALT ([3]; IP dose 10 mg/kg in WFI)	further results
N=C(N)c1ccc(OCCCCCCOc2cc(OCCCCCCOc3ccc(C(=N)N)cc3)cc(OCCCCCCOc3ccc(C(=N)N)cc3)c2)cc1 [Compound 1, Trihexamidine Formate]	1.9 µM	–	–	–	–	–	–
N=C(N)c1ccc(OCCCCCCOc2cc(OCCCCCCOc3ccc(C(=N)N)cc3)cc(OCCCCCCOc3ccc(C(=N)N)cc3)c2)cc1 [Compound 2, Trihexamidine Isethionate]	–	reduced the disease activity index	Significant hepatoprotection	hepatoprotective	2184 IU/L	890 IU/L	Survival (all mice) post GalN/LPS ([1]; 10 mg/kg (8.6 μmole/kg) IP 30 min before GalN/LPS): more than 23 hours; IC50 (HCT-116 cells; HCT-116 cells): 2.66 µM
N=C(N)c1ccc(OCCCCCCCCOc2cc(OCCCCCCCCOc3ccc(C(=N)N)cc3)cc(OCCCCCCCCOc3ccc(C(=N)N)cc3)c2)cc1 [Compound 3, Trioctamidine Isethionate]	6.67 µM	–	–	–	–	–	–
N=C(N)c1ccc(OCCCOc2cc(OCCCOc3ccc(C(=N)N)cc3)cc(OCCCOc3ccc(C(=N)N)cc3)c2)cc1 [Compound 4, Tripropamidine Formate]	38 µM	reduced the disease activity index	Significant hepatoprotection	hepatoprotective	731 IU/L	–	Hepatoprotection in the model (low ALT activity levels following GalN/LPS) ([4]; Study c, FIG. 4): dose-dependent hepatoprotection; Hepatoprotection at stated doses ([4]; Study c, 0.625 mg/kg, 1.25 mg/kg and 2.5 mg/kg IP): Significant hepatoprotection; ALT ([4]; Study c, IP dose 0.625 mg/kg in WFI): 1755 IU/L; ALT ([4]; Study c, IP dose 1.25 mg/kg in WFI): 1090 IU/L; ALT ([4]; Study c, IP dose 2.5 mg/kg in WFI): 555 IU/L
N=C(N)c1ccc(OCCCCCOc2ccc(C(=N)N)cc2)cc1 [Pentamidine, pentamidine, reference compound]	–	–	–	–	–	–	Survival at 8 hours post GalN/LPS ([1]; 25 mg/kg IP 30 min before GalN/LPS): only the 40 mg/kg (67 μmole/kg) group benefited; Survival at 8 hours post GalN/LPS ([1]; 40 mg/kg (67 μmole/kg) IP 30 min before GalN/LPS, PBS controls: no mice survived 8 hours): benefited from hepatoprotective properties; Survival at 23 hours post GalN/LPS ([1]; 25 and 40 mg/kg IP 30 min before GalN/LPS): none survived; Hepatoprotection (positive control) ([3]; 50 mg/kg (84 μmole/kg)): benefited from hepatoprotective properties; ALT ([3]; IP dose 50 mg/kg in WFI): 306 IU/L; Hepatoprotection (positive control) ([4]; Study c text, 50 mg/kg (84 μmole/kg)): benefited from hepatoprotective properties
Triamidine Formate (Chain Average Mn 1000) [Compound 5]	–	–	Significant hepatoprotection	hepatoprotective	1072 IU/L	689 IU/L	HCT-116 IC50 (HCT-116 cells; HCT-116 cells): ∞
